One series has as its target T1, human mGluR5 receptor (Homo sapiens, UniProt P41594).
T1 construct: expressed in transfected cells
In words: intracellular Ca2+ mobilization assay, potentiation of glutamate EC20 response (FDSS). The class given is cell-based. The conditions noted are these: for Emax: HEK293, maximum % effect in concentration-response curve, relative to glutamate ECMax-treated wells, HEK-293 human mGluR5; for EC50: human mGluR5 stably expressed in HEK-293 cells, Fluo-4 AM, increase in glutamate EC20 (~0.2 μM) response. From the text: The compounds provided in the present invention are positive allosteric modulators of mGluR5. These compounds appear to potentiate glutamate responses by binding to an allosteric site other than the glutamate binding site. The response of mGluR5 to a concentration of glutamate is increased when compounds of Formula (I) are present. Compounds of Formula (I) are expected to have their effect substantially at mGluR5 by virtue of their ability to enhance the function of the receptor. The behaviour of positive allosteric modulators tested at mGluR5 using the intracellular Ca^2+ mobilization binding assay method described below and which is suitable for the identification of such compounds.
In brief, the human mGluR5 receptor was stably expressed in HEK-293 cells and grown at a density of 40,000 cells/well in PDL-coated 384-well plates. Cells were preloaded with the calcium-sensing dye Fluo-4 AM and various concentrations of test compound were added in the absence of exogenous glutamate to test for direct agonist activity. Shortly (2.5 min) thereafter, an EC20 equivalent of glutamate (˜0.2 μM) was added. The fluorescence signal was monitored using a Hamamatsu Functional Drug Screening System (FDSS) fluorescence plate reader following the addition of compound alone (direct agonist response) and then the further addition of an EC20 of glutamate (positive allosteric modulation response). The pEC50 was defined as the negative log of the test compound concentration which produced an increase in the glutamate EC20-mediated response that was 50% of maximum. Individual amplitudes were expressed as % effect by multiplying each amplitude by 100 and then dividing the product by the mean of the amplitudes derived from the glutamate ECMax-treated wells. Emax values reported in this application are defined as the maximum % effect obtained in a concentration-response curve.
On the technique in general: A change in cytosolic calcium serves as a functional read-out for many receptors and channels.

T1 sequence (P41594 21-1212): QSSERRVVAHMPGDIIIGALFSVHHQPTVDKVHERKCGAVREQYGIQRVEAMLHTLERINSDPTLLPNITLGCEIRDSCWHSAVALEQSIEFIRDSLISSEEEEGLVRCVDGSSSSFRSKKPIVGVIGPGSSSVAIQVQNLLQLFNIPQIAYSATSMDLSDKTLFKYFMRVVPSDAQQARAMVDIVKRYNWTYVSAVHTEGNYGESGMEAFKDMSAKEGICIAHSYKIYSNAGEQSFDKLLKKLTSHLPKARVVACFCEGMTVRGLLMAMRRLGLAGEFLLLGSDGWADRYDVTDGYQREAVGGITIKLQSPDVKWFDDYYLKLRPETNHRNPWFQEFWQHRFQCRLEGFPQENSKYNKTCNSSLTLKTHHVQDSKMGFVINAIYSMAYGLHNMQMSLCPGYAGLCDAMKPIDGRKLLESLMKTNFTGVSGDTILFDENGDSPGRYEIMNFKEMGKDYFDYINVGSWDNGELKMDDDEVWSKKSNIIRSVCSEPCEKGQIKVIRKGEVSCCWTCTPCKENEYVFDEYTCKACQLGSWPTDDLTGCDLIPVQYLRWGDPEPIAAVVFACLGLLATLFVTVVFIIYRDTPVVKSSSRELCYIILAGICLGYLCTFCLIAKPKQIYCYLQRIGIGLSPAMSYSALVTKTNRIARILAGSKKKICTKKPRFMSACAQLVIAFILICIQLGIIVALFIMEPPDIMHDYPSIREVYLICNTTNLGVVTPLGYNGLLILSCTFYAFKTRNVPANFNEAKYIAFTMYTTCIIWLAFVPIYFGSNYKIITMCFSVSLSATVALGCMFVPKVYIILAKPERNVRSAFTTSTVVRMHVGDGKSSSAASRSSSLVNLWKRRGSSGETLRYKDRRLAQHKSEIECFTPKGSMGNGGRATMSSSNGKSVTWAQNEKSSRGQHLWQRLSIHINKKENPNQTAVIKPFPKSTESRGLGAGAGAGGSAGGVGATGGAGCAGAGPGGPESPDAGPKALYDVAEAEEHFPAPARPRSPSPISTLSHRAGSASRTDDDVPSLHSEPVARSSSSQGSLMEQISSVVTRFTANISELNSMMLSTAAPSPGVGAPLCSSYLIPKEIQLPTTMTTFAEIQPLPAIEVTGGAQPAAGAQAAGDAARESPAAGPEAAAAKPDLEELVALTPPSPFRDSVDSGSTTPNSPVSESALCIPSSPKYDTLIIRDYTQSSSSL

For orientation: melting point means the temperature of the solid-liquid transition. As a reminder, the Emax is the greatest response seen or fitted, relative to the assay's reference. What is called EC50 is the concentration that produces a half-maximal response. For the compound `O=C1CCCc2nc(C#Cc3cncc(F)c3)sc21` [Compound 2, 2-[(5-fluoro-3-pyridinyl)ethynyl]-5,6-dihydro-7(4H)-benzothiazolone], the melting point was in the range of 139.2 to 141.9 °C. Further, on human mGluR5 receptor, the Emax came out at 83% and the EC50 is 4270 nM.
In the case of `O=C1CCCc2nc(CCc3ccccc3)sc21` [Compound 6, 5,6-dihydro-2-(2-phenylethyl)-7(4H)-benzothiazolone], on human mGluR5 receptor, the Emax came to 51% and the EC50 was 18600 nM.
`O=C1NCCc2nc(C#Cc3ccccc3)sc21` [Compound 3, 6,7-dihydro-2-(phenylethynyl)-thiazolo[5,4-c]pyridin-4(5H)-one] displayed a melting point of 232.1 to 235.1 °C. At human mGluR5 receptor, the Emax amounted to 78% and the concentration for a half-maximal effect (EC50) was 219 nM.
Compound `O=C1CCCc2nc(C#Cc3cccnc3)sc21` [Compound 10, 5,6-dihydro-2-(3-pyridinylethynyl)-7(4H)-benzothiazolone] yielded a melting point of 109.5 to 112 °C. Besides, at human mGluR5 receptor, the Emax is 92% and the EC50 was 1510 nM.
Regarding `COCCN1CCc2nc(C#Cc3ccccc3)sc2C1=O` [Compound 11, 6,7-dihydro-5-(2-methoxyethyl)-2-(phenylethynyl)-thiazolo[5,4-c]pyridin-4 (5H)-one], the melting point lay within 144.5 to 148.2 °C. Also, at human mGluR5 receptor, the Emax is 64% and the EC50 was 275 nM.
`O=C1c2sc(NCc3ccccc3)nc2CCN1c1ccc(F)cc1` [Compound 22] returned a melting point of 221.3 °C.
Consider `O=C1c2sc(C#Cc3ccccc3)nc2CCN1Cc1ccccc1` [Compound 12, 6,7-dihydro-2-(phenylethynyl)-5-(phenylmethyl)-thiazolo[5,4-c]pyridin-4(5H)-one], for which the melting point is 141.5 to 152.5 °C. Moreover, on human mGluR5 receptor, the Emax worked out at 90% and the EC50 is 468 nM.
Turning to `O=C1NCCCc2nc(-c3ccc(N4CCCCC4)nc3)sc21` [Compound 8], the melting point was 260.3 to 264 °C. At human mGluR5 receptor, the Emax was found to be 11% and the EC50 was 5010 nM.
For `CN1CCc2nc(C#Cc3ccccc3)sc2C1=O` [Compound 4, 6,7-dihydro-5-methyl-2-(phenylethynyl)-thiazolo[5,4-c]pyridin-4(5H)-one], the melting point was in the range of 146.1 to 147.2 °C. On human mGluR5 receptor, the Emax was found to be 79% and the EC50 is 69.2 nM.
`O=C1CCCc2nc(C#Cc3ccccc3)sc21` [Compound 1, 5,6-dihydro-2-(phenylethynyl)-7(4H)-benzothiazolone] registered a melting point of 117.1 to 119.9 °C. At human mGluR5 receptor, the Emax was found to be 100% and the EC50 is 51.3 nM.
Turning to `CN1CCOc2cc(-c3nc4c(s3)C(=O)CCC4)ccc21` [Compound 9, 2-(4-methyl-3,4-dihydro-2H-1,4-benzoxazin-7-yl)-5,6-dihydro-1,3-benzothiazol-7(4H)-one], the melting point was in the range of 218.1 to 220.8 °C. Besides, on human mGluR5 receptor, the maximal effect (Emax) stood at 77% and the EC50 is 6310 nM.
With `O=C1c2sc(OCc3ccncc3)nc2CCN1c1ccc(F)cc1` [Compound 21], the melting point fell in the range of 169.1 to 170.9 °C.
`O=C1c2sc(OCc3cccnc3)nc2CCN1c1ccc(F)cc1F` [Compound 23] displayed a melting point of 106 to 110 °C.
In turn, `O=C1c2sc(OCc3ccccn3)nc2CCN1c1ccc(F)cc1F` [Compound 24] had a melting point of 98.1 to 100.1 °C.

(Values after patent publication US9174953B2, “Bicyclic thiazoles as allosteric modulators of mGluR5 receptors” (Janssen Pharmaceutica NV, priority 2009, dated 2015).)
